In patent US6297230A, “Cyanoaziridines for treating cancer” (priority 2000, dated 2001):
Converted amounts (≈) assume the structure as drawn. Read-outs that look alike come from different tables or passages of the source.

Legend:
[1] = tested on: MCF-7 breast cancer cells (sens.); assay: In vitro antitumor activity, MCF-7 breast (sensitive); type: cell-based; settings: Homo sapiens, MCF7
Excerpt: (§1) 1) in vitro tumor cell viability assays using MTT and SRB dye reaction endpoints.
(§2) Sulforhodamine B (SRB) Assay for Adherent Tumor Cells
(§3) Sulforhodamine B (SRB) is a protein binding aminoxanthene dye with two sulfonic acid groups. (Lillie, R. D., H. J. Conn's Biological Stains, 9th Ed., Baltimore; Williams & Wilkins, 1977.) It quantitates whole cell protein content by the intensity of dye staining and relates this to the number of viable cells. […] The SRB assay is used for cells which normally adhere to surfaces (in this case plastic culture flasks or petri dishes) as part of their requirement for growth and division in vitro. The SRB assay is currently used by the National Cancer Institute in the anticancer drug screening program. (Skehan, et al., J Natl Cancer Inst 82:1107-1112, 1990; Rubinstein, et al., J Natl Cancer Inst 82:1113-1118, 1990.) Methodologic comparisons have shown that SRB results are linear for the number of tumor cells over a 100-fold range, and for protein content determined by a modified Lowry method or Standard Bradford (Bradford, M., Anal Biochem 72:248-254, 1976) methods. […] (Lillie, R. D., H. J. Conn's Biological Stains, 9th Ed., Baltimore; Williams & Wilkins, 1977.)
(§4) Cell cultures of 10^3 -10^7 cells growing in 96-well plastic microtiter plates are fixed with 50% trichloroacetic acid (TCA) for 30 minutes at 4° C. The cells are then stained with 0.4% (w/v) sulforhodamine B (SRB) dissolved in 1% acetic acid. Unbound dye is removed by 4 washes with 1% acetic acid, and protein-bound dye is extracted with 10 mM unbuffered Tris® base [tris(hydroxymethyl)aminomethane]. The optical density (OD) of this extracted solution is measured at […] in a microtiter plate ultraviolet absorbance detector. Cell viability is expressed as percent of control by dividing the optical densities and multiplying the result by 100.
(§5) Microculture Tetrazolium (MTT) Assay for Tumor Cells
(§6) Tumors are disaggregated into single cell suspensions using mechanical, hypoosmotic, and/or enzymatic (trypsin) methods. The cells are plated at a concentration of 3-5×10^4 per […] well into plastic 96-well plates. Growth medium containing 5-10% (vol/vol) heat-inactivated fetal bovine serum and penicillin/streptomycin (both […]) are added prior to incubation at 37° C. for 6 days. Afterwards the medium containing the drug is removed, the cells are centrifuged in fresh medium or phosphate-buffered saline (pH 7.4). A tetrazolium dye, […]-2,5-diphenyl tetrazolium (MTT), is then added. (Mossman, T., J Immunol 65:55-63, 1983.) This dye forms a colored formazan product upon activation by mitochondrial reductases in viable cells. Typically, the formazan product is solubilized in acid-propanol or DMSO. The intensity of the color is proportional to viable cell numbers and this is quantitated by spectrophotometric absorbance at 570 nm on a micro ELISA plate reader. The results are calibrated in % control absorbance from untreated tumor cells. (Alley, et al., Cancer Res 48:589-601, 1988.)
(§7) Table 3 gives the potencies of the new aziridine-1-carboxamides in a panel of human and murine tumor cells in culture. The tumor cell lines in this table are selected to represent a range of histological and growth phenotypes. Their characteristics are described below.
1.1 MCF-7 Breast Cancer: The parental (sensitive) MCF-7 breast cancer is an estrogen-dependent adenocarcinoma originally derived from a pleural effusion in a person with advanced metastatic breast cancer. (Soule, et al., J Natl Cancer Inst 51:1409-1416, 1973.)

MCF-7/MITOX cells = assay: In vitro antitumor activity, MCF-7/MITOX; type: cell-based; settings: Homo sapiens, MCF7/Mitox; MCF-7 breast, mitoxantrone resistant
Excerpt: as §1, §2, §3, §4, §5, §6, §7
1.3 MCF-7/D40 and MCF-7/MITOX cell lines were developed by chronic exposure in vitro to increasing concentrations of the DNA-intercalating antitumor agents doxorubicin and mitoxantrone, respectively. […] The MCF-7/D40 cells express the cell membrane efflux pump, P-glycoprotein and are over 40-fold resistant to doxorubicin, mitoxantrone and the vinca alkaloids, vinblastine and vincristine.

[2] = tested on: OVCAR-3 ovarian carcinoma cells; assay: In vitro antitumor activity, OVCAR-3 ovarian; type: cell-based, human; settings: OVCAR3 ovarian
Excerpt: as §1, §2, §3, §4, §5, §6, §7
5.0 Human OVCAR-3 Ovarian Carcinoma was originally isolated by Hamilton, et al. Experimental model systems of ovarian cancer; applications to the design and evaluation of new treatment approaches. Seminar in Onocology, 11:285-298, 1984, from a patient with progressive adenocarcinoma of the ovary. This patient had relapsed after receiving a combination chemotherapy regimen containing cyclophosphamide, doxorubicin and cisplatin. […] It is also one of the standard human tumor cell lines used for screening new anticancer agents at the NCI. (Alley, et al., Cancer Res 48:589-601, 1988.)

[3] = tested on: L-1210 leukemia cells (sensitive); assay: MTT growth inhibition, sensitive L-1210 leukemia cells; type: cell-based, mouse; settings: Sensitive L-1210, drug continuously present 8 days
Procedure: as §6, with “1988.) […]” for “1988.)”
Murine L-1210 Leukemia Cells were first described by Law, et al. from a female DBA/2 mouse exposed to topical methylcholanthrene. (Law, et al., J Natl Cancer Inst 10:179-192, 1949.) The cells represent a lymphocytic lineage and are highly tumorigenic in syngeneic DBA/2 mice, producing lethality typically 10-14 days after inoculation. This cell line has been used extensively to characterize the antitumor activity of chemotherapeutic agents. (Goldin, et al., Cancer Res (Cancer Chemotherapy Screening Data IX) 21:27-92, 1961.) The L-1210 cells have a model 40-41 chromosomes and a very high plating efficiency in suspension cultures in vitro.
*Drug continuously present for 8 days; IC50 measured by MTT dye

[4] = Homo sapiens, OVCAR-3, read-out: IC50
[5] = Mus musculus, L1210, 192 h, read-out: IC50

Compound	IC50 [1]	IC50 (MCF-7/MITOX cells)	IC50 [2, 4]	IC50 [3, 5]	IC50 [2]	IC50 [3]
CNC(=O)N1CC1C#N (stereo not shown) [AMP 403, 2-Cyanoaziridine-1-(N-methyl)carboxamide]	3.3 µg/mL (≈ 26.4 µM)	2.3 µg/mL (≈ 18.4 µM)	1.7 µg/mL	1.1 µg/mL (≈ 8.79 µM)		
N#CC1CN1C(=O)Nc1ccccc1 (stereo not shown) [AMP 404, 2-Cyanoaziridine-1-(N-phenyl)carboxamide]	0.5 µg/mL (≈ 2.67 µM)	0.8 µg/mL (≈ 4.27 µM)	1.3 µg/mL	0.2 µg/mL (≈ 1.07 µM)		
CCNC(=O)N1CC1C#N (stereo not shown) [AMP 406, 2-Cyanoaziridine-1-(N-ethyl)carboxamide]	4 µg/mL (≈ 28.7 µM)	1.4 µg/mL (≈ 10.1 µM)	2 µg/mL	2 µg/mL (≈ 14.4 µM)		
N#CC1CN1C(=O)Nc1ccc(Cl)cc1Cl (stereo not shown) [AMP 407, 2-Cyanoaziridine-1-[N-(2,4-dichlorophenyl)]carboxamide]			0.6 µg/mL	52.3 µg/mL (≈ 204 µM)		
CC(C)(C)NC(=O)N1CC1C#N (stereo not shown) [AMP 410, 2-Cyanoaziridine-1-(N-t-butyl)carboxamide]	> 10 µg/mL	20.1 µg/mL (≈ 120 µM)	31.1 µg/mL	22 µg/mL (≈ 132 µM)		
N#CC1CN1C(=O)NCc1ccccc1 (stereo not shown) [AMP 412, 2-Cyanoaziridine-1-(N-benzyl)carboxamide]	1.5 µg/mL (≈ 7.45 µM)	0.7 µg/mL (≈ 3.48 µM)	1 µg/mL	0.8 µg/mL (≈ 3.98 µM)		
N#CC1CN1C(=O)NC1CCCCC1 (stereo not shown) [AMP 413, 2-Cyanoaziridine-1-(N-cyclohexyl)carboxamide]	2.5 µg/mL (≈ 12.9 µM)	1.9 µg/mL (≈ 9.83 µM)	5.9 µg/mL	1.4 µg/mL (≈ 7.24 µM)		
CCCCNC(=O)N1CC1C#N (stereo not shown) [AMP 414, 2-Cyanoaziridine-1-(N-butyl)carboxamide]			2 µg/mL	2 µg/mL (≈ 12 µM)		
N#CC1CN1C(=O)Nc1ccc(F)cc1 (stereo not shown) [AMP 415, 2-Cyanoaziridine-1-[N-(4-fluorophenyl)]carboxamide]	0.4 µg/mL (≈ 1.95 µM)	0.6 µg/mL (≈ 2.92 µM)	1.2 µg/mL	1.5 µg/mL (≈ 7.31 µM)		
N#CC1CN1C(=O)Nc1ccc(C(F)(F)F)cc1 (stereo not shown) [AMP 416, 2-Cyanoaziridine-1-[N-(4-trifluorophenyl)]carboxamide]	0.4 µg/mL (≈ 1.57 µM)	0.3 µg/mL (≈ 1.18 µM)	1.5 µg/mL	2 µg/mL (≈ 7.84 µM)		
N#CC1CN1C(=O)Nc1ccc([N+](=O)[O-])cc1 (stereo not shown) [AMP 417, 2-Cyanoaziridine-1-[N-(4-nitrophenyl)]carboxamide]			1.5 µg/mL	0.6 µg/mL (≈ 2.58 µM)		
CCOC(=O)c1ccc(NC(=O)N2CC2C#N)cc1 (stereo not shown) [AMP 419, 2-Cyanoaziridine-1-[N-(4-ethoxycarbonylphenyl)]carboxamide]			1.5 µg/mL	2.5 µg/mL (≈ 9.64 µM)		
CCOC(=O)CNC(=O)N1CC1C#N (stereo not shown) [AMP 420, 2-Cyanoaziridine-1-[N-(ethoxycarbonyl)methyl]carboxamide]			10 µg/mL	2.5 µg/mL (≈ 12.7 µM)		
N#CC1CN1C(=O)Nc1cccnc1 (stereo not shown) [AMP 421, 2-Cyanoaziridine-1-[N-(3-pyridyl)]carboxamide]			1.9 µg/mL	2.3 µg/mL (≈ 12.2 µM)		
N#CC1CN1C(=O)Nc1ccc(S(N)(=O)=O)cc1 (stereo not shown) [AMP 422, 2-Cyanoaziridine-1-[N-(4-sulfamylphenyl)]carboxamide]			50 µg/mL	> 10 µg/mL		
N#CC1CN1C(=O)Nc1cccc2ccccc12 (stereo not shown) [AMP 423, 2-Cyanoaziridine-1-[N-(1-naphthyl)]carboxamide]			1.4 µg/mL	1.7 µg/mL (≈ 7.17 µM)		
CC(=O)Oc1ccccc1NC(=O)N1CC1C#N (stereo not shown) [AMP 424, 2-Cyanoaziridine-1-[N-(2-acetoxyphenyl)]carboxamide]					> 10 µg/mL	> 10 µg/mL
CC(=O)c1cccc(NC(=O)N2CC2C#N)c1 (stereo not shown) [AMP 425, 2-Cyanoaziridine-1-[N-(3-acetylphenyl)]carboxamide]			2.23 µg/mL	2.2 µg/mL (≈ 9.6 µM)		
